Columns and labels:
U-87MG cells [1] = assay: Cell death of virus-infected cells upon prodrug (GCV, 5-FC) treatment, optical microscope; set-up: species or system human; conditions: GaLV env-based vectors; prodrugs GCV 30 μg/ and 1 mM 5-FC; FIG. 12
Protocol: Specifically, the spRRVe-TK/sRRVgp-sEF1α-hopt-yCD virus was co-transfected into the 293T cell line using PLUS reagent (Invitrogen) and lipofectamine (Invitrogen). After 2 days, the supernatant of the virus was recovered, and U-87MG cells passaged in a 6-well plate at the density of 1.5×10^5 cells/well the previous day were infected with the virus and polybran at a concentration of 8 μg/ ? for 8 hours. Five days after infection (postinfection 5d), the cell supernatant was taken and re-infected to U-87MG cells passaged in a 6-well plate at the density of 1.5×10^5 cells/well the previous day (p1), and then sequentially infected up to p4 in the same way. Cells at each stage of infection were treated with trypsin-EDTA to make single cells, and passaged in a 12-well plate at the density of 1.5×10^5 cells/well, and from the next day after the passage, 30 μg/ ? of GCV and 1 mM 5-FC were treated for […], respectively, to confirm cell death.
Specifically, the virus containing spRRVe-F4-hopt-yCD/sRRVgp-TK, spRRVe-F4-hopt-yCD/sRRVgp-F1-TK, spRRVe-F4-hopt-yCD/sRRVgp-F2-TK, spRRVe-F4-hopt-yCD/sRRVgp-F3-TK and spRRVe-F4-hopt-yCD/sRRVgp-F4-TK was co-transfected into the 293T cell line using PLUS reagent (Invitrogen) and lipofectamine (Invitrogen). […]

U87MG cells = assay: Western blotting of thymidine kinase (TK) and yeast cytosine deaminase (yCD) protein in infected cells; format: cell-based, human
Protocol: After 3 days of initial infection, p1(passage 1)˜p10 cells were harvested and resuspended in 100 ? of T-PER tissue extraction agent (PIERCE, 78510)+1× proteinase inhibitor. Thereafter, the cells were broken by freezing-thawing three times, and the cytoplasmic supernatant was recovered by centrifugation at 13,000 rpm for 10 minutes. After quantifying the protein amount using BCA, 20 μg of cell lysate was taken and mixed with SDS sample loading dye to 1%. After reacting for 5 minutes in a 100° C. heat block, the reaction mixture was moved to ice and reacted for 2 minutes. Then, the reactant was loaded on 10% (TK) or 13.5% (yCD) SDS-PAGE gel, followed by electrophoresis. Upon completion of the electrophoresis, the protein was transferred to a NC (nitrocellulose) membrane at 90 V for 2 hours, and then put into a blocking solution (5% skim milk in 1X TBS-T), followed by reaction at room temperature for 1 hour. […] Then, the membrane was washed 4 times with 1× TBS-T at room temperature for 10 minutes, reacted in an ECL (enhanced chemiluminescence, Bio-rad Cat No. 170-5062) solution, and then analyzed in a chemiluminescence imaging system (ChemiDoc, Biorad CA). […]

U-87MG cells [2] = assay: Cell death of virus-infected cells upon prodrug (GCV, 5-FC) treatment, optical microscope; set-up: species or system human; conditions: MuLV env-based vectors, FIG. 16
[3] = tested on: brain tumor cell line U87MG; assay: Recombination type analysis by genomic DNA PCR after serial virus infection (passages); format: cell-based, human; conditions: spRRVe-yCD/sRRVgp-TK virus
Protocol: After 3 days of initial infection, the cultured supernatant was taken and re-infected to new U87MG, and the infected U87MG cell line was recovered and genomic DNA was isolated.
The replicating-retrovirus vector for gene therapy is highly likely to cause recombination because the size of genomic RNA is increased by the introduced foreign gene and non-homologous sequences are added. Therefore, in order to construct an efficient and stable replicating-retrovirus vector for gene therapy, it is very important to confirm the presence and degree of recombination at the development stage.
Specifically, polymerase chain reaction was performed using the primers listed in Table 1 below capable of specifically amplifying the env vector. […] 100 ng of genomic DNA, 1X reaction buffer, 0.25 mM dNTP, 0.2 pmol forward primer, 0.2 pmol reverse primer, and 0.2 unit Taq polymerase were added to a PCR reaction tube, and sterilized distilled water was added to make the final volume of 20 ? . Then, After PCR was performed under the conditions shown in Table 1 below, the amplified DNA was loaded on a 1% agarose gel to confirm the PCR amplification product, thereby confirming the infectivity of the virus and whether the recombination occurred. […]

spRRVe-TK: GaLV env vector, 646 bp MCMV promoter, TK gene (SEQ. ID. NO: 27)
cell death upon prodrug treatment (U-87MG cells [1]): cell death is induced | thymidine kinase (TK) protein expression (U87MG cells; GaLV env-based vectors with sRRVgp-sEF1α-hopt-yCD, 0.1 MOI, p1-p10, FIG. 10): continuously expressed

sRRVe-TK: MuLV env vector, 646 bp MCMV promoter, TK gene (SEQ. ID. NO: 33)
cell death upon prodrug treatment (U-87MG cells [2]): cell death is induced | thymidine kinase (TK) protein expression (U87MG cells; MuLV env-based vectors, FIG. 15): continuously expressed

spRRVe-yCD: GaLV env vector with full-length MCMV promoter and yCD gene (SEQ. ID. NO: 25)
virus proliferation and infection (PCR products detected) ([3]; day 3 of initial infection and passages 1 to 3): virus proliferation and infection progressed | passage from which PCR products smaller than the expected amplification product were detected (recombination) ([3]; full-length MCMV promoter, 2E7 gc, GaLV 1624F/MFGSacIR primers, up to passage 3): 2 passage
